Results from patent US7067251B2 (priority 2000, dated 2006).

System: C3H10T½ cells
Type: cell-based, murine

**Q.** For `NC(=O)NO` [HU, hydroxyurea], which “Type X collagen synthesis” value is on record?
**A.** induces type X collagen synthesis
